In brackets after ≈: the same amount, converted by molar mass.
Experiments:
[1] = Inhibition of NDM1 (unknown origin) pre-incubated for 10 mins before nitrocefin substrate addition
[2] = test system: Klebsiella pneumoniae ATCC BAA-2146; assay: Inhibition of NDM1 in Klebsiella pneumoniae ATCC BAA-2146 assessed as rescue concentration needed to fully regain activity of meropenem at clinical breakpoint (2.5 uM) by cell-based synergy screening assay
[3] = test system: Klebsiella pneumoniae ATCC BAA-2146; assay: Inhibition of NDM1 in Klebsiella pneumoniae ATCC BAA-2146 assessed as potentiation of meropenem-induced microbial growth inhibition by cell-based synergy screening assay
[4] = test system: Klebsiella pneumoniae ATCC BAA-2146; assay: Inhibition of NDM1 in Klebsiella pneumoniae ATCC BAA-2146 assessed as potentiation of meropenem-induced microbial growth inhibition by measuring compound MIC by cell-based synergy screening assay
Klebsiella pneumoniae = assay: Growth inhibition of Klebsiella pneumoniae ATCC BAA-2146
[5] = test system: Klebsiella pneumoniae ATCC BAA-2146; assay: Inhibition of NDM1 in Klebsiella pneumoniae ATCC BAA-2146 assessed as potentiation of meropenem-induced microbial growth inhibition by measuring meropenem MIC by cell-based synergy screening assay (Rvb (meropenem MIC alone) = 32.5 microg/ml)
[6] = test system: Klebsiella pneumoniae ATCC BAA-2146; assay: Inhibition of NDM1 in Klebsiella pneumoniae ATCC BAA-2146 assessed as potentiation of meropenem-induced microbial growth inhibition by measuring meropenem MIC by cell-based synergy screening assay (Rvb (meropenem MIC alone) = 65 microg/ml)
[7] = test system: Klebsiella pneumoniae ATCC BAA-2146; assay: Inhibition of NDM1 in Klebsiella pneumoniae ATCC BAA-2146 assessed as potentiation of meropenem-induced microbial growth inhibition by measuring meropenem MIC by cell-based synergy screening assay (Rvb (meropenem MIC alone) = 8 microg/ml)
[8] = test system: Klebsiella pneumoniae ATCC BAA-2146; assay: Inhibition of NDM1 in Klebsiella pneumoniae ATCC BAA-2146 assessed as potentiation of meropenem-induced microbial growth inhibition by measuring meropenem MIC by cell-based synergy screening assay (Rvb (meropenem MIC alone) = 2 microg/ml)
[9] = test system: Klebsiella pneumoniae ATCC BAA-2146; assay: Inhibition of NDM1 in Klebsiella pneumoniae ATCC BAA-2146 assessed as potentiation of meropenem-induced microbial growth inhibition by measuring meropenem MIC by cell-based synergy screening assay (Rvb (meropenem MIC alone) = 16.25 microg/ml)

SMILES | IC50 ([1]; read-out: IC50) [µM] | MIC [4] [µg/mL] | MIC [5] [µg/mL] | MIC [6] [µg/mL] | MIC [7] [µg/mL] | MIC [8] [µg/mL] | MIC [9] [µg/mL] | IC50 [1] | Activity [2] [µM] | fractional inhibitory concentration index (FICI) [3] | MIC (Klebsiella pneumoniae) [µg/mL]
N[C@@H](CN[C@@H](CN1CCC[C@H]1C(=O)O)C(=O)O)C(=O)O | 12.8 | > 280 | – | 65 | – | – | – | – | > 100 | 2 | > 280
N[C@@H](CN[C@@H](CN1CCC[C@@H]1C(=O)O)C(=O)O)C(=O)O | 9 | > 406 | 65 | – | – | – | – | – | > 100 | < 1.5 | 406 (≈ 1400 µM)
COC(=O)[C@H](CN[C@@H](CC(=O)O)C(=O)O)NC[C@H](N)C(=O)OC | 17.2 | > 298 | – | 65 | – | – | – | – | > 100 | 2 | > 298
N[C@H](CN[C@@H](CN[C@@H](CC(=O)O)C(=O)O)C(=O)O)C(=O)O | 9.3 | > 250 | – | – | – | – | 65 | – | 50 | < 0.5 | 62.5 (≈ 203 µM)
C[C@H](CC(=O)O)NC[C@H](NC[C@H](N)C(=O)O)C(=O)O | 94 | > 250 | 65 | – | – | – | – | – | > 100 | < 1 | 125 (≈ 451 µM)
COC(=O)C[C@H](NC[C@H](NC[C@H](N)C(=O)O)C(=O)O)C(=O)OC | – | > 298 | – | 65 | – | – | – | Not Active | > 100 | 2 | > 298

More lines, main results first:

IC50 ([1]; read-out: IC50) [µM] | MIC [4] [µg/mL] | MIC [5] [µg/mL] | MIC [6] [µg/mL] | MIC [7] [µg/mL] | MIC [8] [µg/mL] | MIC [9] [µg/mL] | IC50 [1] | SMILES | Activity [2] [µM] | fractional inhibitory concentration index (FICI) [3] | MIC (Klebsiella pneumoniae) [µg/mL]
22.1 | > 250 | 65 | – | – | – | – | – | C[C@H](NC[C@H](NC[C@H](N)C(=O)O)C(=O)O)C(=O)O | > 100 | < 1.5 | 250 (≈ 950 µM)
10.4 | > 250 | 65 | – | – | – | – | – | N[C@@H](CN[C@H](CN[C@@H](CC(=O)O)C(=O)O)C(=O)O)C(=O)O | 100 | < 1 | 125 (≈ 407 µM)
8.1 | > 250 | – | – | 65 | – | – | – | N[C@H](CN[C@H](CN[C@@H](CC(=O)O)C(=O)O)C(=O)O)C(=O)O | 50 | < 0.62 | 125 (≈ 407 µM)
10.4 | > 250 | – | – | 65 | – | – | – | C[C@@H](CN[C@@H](CN[C@@H](CC(=O)O)C(=O)O)C(=O)O)C(=O)O | 50 | < 0.62 | 125 (≈ 408 µM)
7 | > 250 | – | – | – | 65 | – | – | N[C@@H](CN[C@@H](CN[C@@H](CC(=O)O)C(=O)O)C(=O)O)C(=O)O | 25 | < 0.28 | 62.5 (≈ 203 µM)

Source: ChEMBL document CHEMBL4043151, “Synthesis and biological evaluation of Aspergillomarasmine A derivatives as novel NDM-1 inhibitor to overcome antibiotics resistance” (Bioorg Med Chem, 2017)
